Experimental data: patent US20100298141A1, “SUBSTITUTED PYRIDINE N-OXIDE HERBICIDES” (E. I. DU PONT DE NEMOURS AND COMPANY, priority 2007, published 2010)

Legend:
barnyardgrass = experiment: Test A pre-/postemergence greenhouse test; type: in vivo, Echinochloa crus-galli; conditions: for Plant response rating, Barnyardgrass: 0 to 100 scale where 0 is no effect and 100 is complete control; for Barnyardgrass plant response rating: 0 to 100 scale
Summary of the method: (§1)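 Visual injury ratings against untreated controls, taken roughly ten days after treatment in greenhouse. Plants were sprayed postemergence at one- to two-leaf stage (2–10 cm tall); at the same time, seeded loam/sand soil received a directed preemergence spray. Formulation: non-phytotoxic solvent mixture with surfactant.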

velvetleaf = experiment: Test A pre-/postemergence greenhouse test; type: in vivo, Abutilon theophrasti; conditions: for Plant response rating, Velvetleaf: 0 to 100 scale where 0 is no effect and 100 is complete control; for Velvetleaf plant response rating: 0 to 100 scale
Summary of the method: as §1

green foxtail = experiment: Test C pre-/postemergence test; type: in vivo, Setaria viridis
Summary of the method: (§2)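 Compounds in a non-phytotoxic solvent with surfactant applied preemergence to seeded pots and, at the same time, postemergence to plants 2–18 cm tall (1- to 4-leaf stage). Paddy tests: pots flooded to 3 cm, compound applied into the water, depth held throughout.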

Italian ryegrass = experiment: Test C pre-/postemergence test; type: in vivo, Lolium multiflorum; conditions: for Plant response rating (0 to 100), Ryegrass, Italian / Plant response rating, Ryegrass, Italian: Postemergence; for Plant response rating, Ryegrass, Italian: scale 0 to 100, 0 no effect, 100 complete control
Summary of the method: as §2

goosegrass = experiment: Test F preemergence test; type: in vivo, Eleusine indica; conditions: scale 0 to 100
Summary of the method: (§3)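 Visual ratings relative to controls, taken after 14 to 21 days in a greenhouse. Test chemicals, formulated in a surfactant-containing non-phytotoxic solvent mixture, were applied preemergence to sown seeds or postemergence to sugarcane plants.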

johnsongrass = experiment: Test F preemergence test; type: in vivo, Sorghum halepense; conditions: scale 0 to 100
Summary of the method: as §3

kochia = experiment: Test F preemergence test; type: in vivo, Kochia scoparia; conditions: preemergence, scale 0 to 100
Summary of the method: as §3

purple nutsedge = experiment: Test F preemergence test; type: in vivo, Cyperus rotundus; conditions: scale 0 to 100
Summary of the method: as §3

dallisgrass = experiment: Test F preemergence test; type: in vivo, Paspalum dilatatum; conditions: scale 0 to 100
Summary of the method: as §3

broadleaf signalgrass = experiment: Test F preemergence test; type: in vivo, Brachiaria platyphylla; conditions: scale 0 to 100
Summary of the method: as §3

common groundsel = experiment: Test F preemergence test; type: in vivo, Senecio vulgaris; conditions: scale 0 to 100
Summary of the method: as §3

Virginia dayflower = experiment: Test F preemergence test; type: in vivo, Commelina virginica; conditions: 16 g ai/ha, preemergence; scale 0 to 100
Summary of the method: as §3

itchgrass = experiment: Test F preemergence test; type: in vivo, Rottboellia cochinchinensis; conditions: scale 0 to 100
Summary of the method: as §3

[1] = Postemergence, 500 g ai/ha, 0 is no effect, 100 is complete control
[2] = Preemergence, 125 g ai/ha, 0 no effect, 100 complete control
[3] = 62 g ai/ha, Preemergence, scale 0 to 100
[4] = 125 g ai/ha, preemergence, scale 0 (no effect) to 100 (complete control)
[5] = preemergence, 250 g ai/ha, scale 0 (no effect) to 100 (complete control)

CCn1nc(C(F)(F)F)c(CS(=O)(=O)c2cc(C)cc[n+]2[O-])c1OCC(F)(F)F [Compound 64]
Plant response rating, Barnyardgrass (barnyardgrass; Postemergence, 125 g ai/ha): 90 | Barnyardgrass plant response rating (barnyardgrass; [1]): 90 | Barnyardgrass plant response rating (barnyardgrass; [2]): 70 | Plant response rating, Barnyardgrass (barnyardgrass; Preemergence, 500 g ai/ha): 100 | Plant response rating, Velvetleaf (velvetleaf; Postemergence, 125 g ai/ha): 60 | Velvetleaf plant response rating (velvetleaf; [1]): 70 | Velvetleaf plant response rating (velvetleaf; [2]): 50 | Plant response rating, Velvetleaf (velvetleaf; Preemergence, 500 g ai/ha): 100 | Foxtail, Green plant response rating (green foxtail; [3]): 100 | Foxtail, Green plant response rating (green foxtail; [4]): 100 | Plant response rating (0 to 100), Foxtail, Green (green foxtail; Postemergence, 31 g ai/ha): 0 | Plant response rating, Foxtail, Green (green foxtail; Postemergence, 62 g ai/ha, scale 0 to 100, 0 no effect, 100 complete control): 0 | Plant response rating, Foxtail, Green (green foxtail; Postemergence, 125 g ai/ha, scale 0 to 100, 0 no effect, 100 complete control): 50 | Plant response rating, Foxtail, Green (green foxtail; Postemergence, 250 g ai/ha, scale 0 to 100, 0 no effect, 100 complete control): 80 | Plant response rating, Foxtail, Green (green foxtail; Preemergence, 31 g ai/ha, scale 0 to 100 (0 no effect, 100 complete control)): 75 | Foxtail, Green plant response rating (green foxtail; [5]): 100 | Ryegrass, Italian plant response rating (Italian ryegrass; [3]): 50 | Ryegrass, Italian plant response rating (Italian ryegrass; [4]): 90 | Plant response rating (0 to 100), Ryegrass, Italian (Italian ryegrass; 31 g ai/ha): 0 | Plant response rating (0 to 100), Ryegrass, Italian (Italian ryegrass; 62 g ai/ha): 0 | Plant response rating, Ryegrass, Italian (Italian ryegrass; 125 g ai/ha): 30 | Plant response rating, Ryegrass, Italian (Italian ryegrass; 250 g ai/ha): 45 | Ryegrass, Italian plant response rating (Italian ryegrass; [5]): 100 | Plant response rating, Goosegrass (goosegrass; 16 g ai/ha, preemergence): 75 | Goosegrass plant response rating (goosegrass; 62 g ai/ha, Preemergence): 90 | Goosegrass plant response rating (goosegrass; 125 g ai/ha, preemergence): 98 | Plant response rating, Goosegrass (goosegrass; Preemergence, 31 g ai/ha): 90 | Plant response rating, Johnsongrass (johnsongrass; 16 g ai/ha, preemergence): 0 | Johnsongrass plant response rating (johnsongrass; 62 g ai/ha, Preemergence): 90 | Johnsongrass plant response rating (johnsongrass; 125 g ai/ha, preemergence): 100 | Plant response rating, Johnsongrass (johnsongrass; Preemergence, 31 g ai/ha): 75 | Plant response rating, Kochia (kochia; 16 g ai/ha): 0 | Kochia plant response rating (kochia; 125 g ai/ha): 75 | Plant response rating, Purple Nutsedge (purple nutsedge; 16 g ai/ha, preemergence): 20 | Purple Nutsedge plant response rating (purple nutsedge; 62 g ai/ha, Preemergence): 50 | Purple Nutsedge plant response rating (purple nutsedge; 125 g ai/ha, preemergence): 80 | Plant response rating, Purple Nutsedge (purple nutsedge; Preemergence, 31 g ai/ha): 50 | Plant response rating, Dallisgrass (dallisgrass; 16 g ai/ha, preemergence): 0 | Dallisgrass plant response rating (dallisgrass; 62 g ai/ha, Preemergence): 70 | Dallisgrass plant response rating (dallisgrass; 125 g ai/ha, preemergence): 90 | Plant response rating, Dallisgrass (dallisgrass; Preemergence, 31 g ai/ha): 35 | Plant response rating, Signalgrass (broadleaf signalgrass; 16 g ai/ha, preemergence): 30 | Signalgrass plant response rating (broadleaf signalgrass; 125 g ai/ha, preemergence): 100 | Plant response rating, Signalgrass (broadleaf signalgrass; Preemergence, 62 g ai/ha): 100 | Plant response rating, Signalgrass (broadleaf signalgrass; Preemergence, 31 g ai/ha): 30 | Plant response rating, Groundsel (common groundsel; 16 g ai/ha, preemergence): 0 | Groundsel plant response rating (common groundsel; 62 g ai/ha, Preemergence): 15 | Groundsel plant response rating (common groundsel; 125 g ai/ha, preemergence): 80 | Plant response rating, Groundsel (common groundsel; Preemergence, 31 g ai/ha): 0 | Plant response rating, Dayflower (Virginia dayflower): 0 | Plant response rating, Itchgrass (itchgrass; 16 g ai/ha, preemergence): 0 | Itchgrass plant response rating (itchgrass; 62 g ai/ha, Preemergence): 30 | Itchgrass plant response rating (itchgrass; 125 g ai/ha, preemergence): 75 | Plant response rating, Itchgrass (itchgrass; Preemergence, 31 g ai/ha): 30
